Here are results for 17 molecules from patent publication US9365522B2, “Pyrazole amide derivative” (AMGEN INC., priority 2015, dated 2016).

This experiment has as its target T1, ligand binding domain of human ROR gamma (Homo sapiens, UniProt P51449).
T1 construct: NM_001001523; expressed in transfected cells; host or cells: HEK293T
T1 sequence (P51449 247-497 isoform P51449-2): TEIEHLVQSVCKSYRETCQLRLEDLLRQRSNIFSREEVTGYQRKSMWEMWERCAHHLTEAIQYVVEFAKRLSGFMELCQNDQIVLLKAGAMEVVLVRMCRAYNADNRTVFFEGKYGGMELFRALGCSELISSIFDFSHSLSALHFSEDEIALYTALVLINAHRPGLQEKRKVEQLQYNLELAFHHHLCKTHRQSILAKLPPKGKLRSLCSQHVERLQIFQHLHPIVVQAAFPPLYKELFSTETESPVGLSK
Kind of experiment: ROR gamma reporter gene assay (GAL4-RORγ LBD luciferase, Dual-Glo). In kind it is cell-based. The following applies: HEK293T cells transfected with pM-ROR gamma, 8 concentrations 3.5 nM to 10.5 μM, 24 h incubation; read-out: result (pIC50, inhibition of RORγ transcriptional activity) (converted). Summed up:
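Inhibition of RORγ-driven transcription was measured in HEK293T cells expressing a GAL4 fusion of the human RORγ LBD (aa 247-497), with renilla luciferase as internal control. Cells in 10% charcoal-stripped serum received compound (3.5 nM–10.5 μM) for 24 h.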
`CC1(C)CC[C@H](N(CC(=O)c2c(Cl)cncc2Cl)C(=O)c2cnn([C@H]3CC[C@H](C(=O)O)CC3)c2C(F)(F)F)C1` [Example 184, trans-4-(4-((2-(3,5-dichloropyridin-4-yl)-2-oxoethyl)-((1S)-3,3-dimethylcyclopentyl)carbamoyl)-5-(trifluoromethyl)pyrazol-1-yl)cyclohexane-1-carboxylic acid]: the IC50 was 162000 pM.

As for `O=C(CN(C(=O)c1cnn([C@H]2CC[C@H](C(=O)O)CC2)c1C(F)(F)F)C1CCCC1)c1c(Cl)cncc1Cl` [Example 185, trans-4-(4-(cyclopentyl-(2-(3,5-dichloropyridin-4-yl)-2-oxoethyl)carbamoyl)-5-(trifluoromethyl)pyrazol-1-yl)cyclohexane-1-carboxylic acid], the IC50 was 1.82e+06 pM.

Turning to `CC(C)(C)CN(CC(=O)c1c(Cl)cncc1Cl)C(=O)c1cnn([C@H]2CC[C@](C)(C(=O)O)CC2)c1C(F)(F)F` [Example 186, trans-4-(4-((2-(3,5-dichloropyridin-4-yl)-2-oxoethyl)-(2,2-dimethylpropyl)carbamoyl)-5-(trifluoromethyl)pyrazol-1-yl)-1-methylcyclohexane-1-carboxylic acid], the IC50 was 26900 pM. `CC(C1CCCC1)N(CC(=O)c1c(Cl)cncc1Cl)C(=O)c1cnn([C@H]2CC[C@H](C(=O)O)CC2)c1C(F)(F)F` (stereo partly drawn) [Example 187, trans-4-(4-(1-cyclopentylethyl-(2-(3,5-dichloropyridin-4-yl)-2-oxoethyl)carbamoyl)-5-(trifluoromethyl)pyrazol-1-yl)cyclohexane-1-carboxylic acid]: the IC50 was 224000 pM.

For the molecule `COc1cncc(Cl)c1C(=O)CN(Cc1ccc(F)cc1)C(=O)c1cnn([C@H]2CC[C@H](C(=O)O)CC2)c1C(F)(F)F` [Example 188, trans-4-(4-((2-(3-chloro-5-methoxypyridin-4-yl)-2-oxoethyl)-((4-fluorophenyl)methyl)carbamoyl)-5-(trifluoromethyl)pyrazol-1-yl)cyclohexane-1-carboxylic acid], the IC50 was 275000 pM. To `CC1(C)CCC(N(CC(=O)c2c(Cl)cc(Cl)cc2Cl)C(=O)c2cnn([C@H]3CC[C@H](C(=O)O)CC3)c2C(F)(F)F)CC1` [Example 189, trans-4-(4-((4,4-dimethylcyclohexyl)-(2-oxo-2-(2,4,6-trichlorophenyl)ethyl)carbamoyl)-5-(trifluoromethyl)pyrazol-1-yl)cyclohexane-1-carboxylic acid] belongs 30200 pM; to `CC1(C)CCC(N(CC(=O)c2c(Cl)cc(F)cc2Cl)C(=O)c2cnn([C@H]3CC[C@](C)(C(=O)O)CC3)c2C(F)(F)F)CC1` [Example 190, trans-4-(4-((2-(2,6-dichloro-4-fluorophenyl)-2-oxoethyl)-(4,4-dimethylcyclohexyl)carbamoyl)-5-(trifluoromethyl)pyrazol-1-yl)-1-methylcyclohexane-1-carboxylic acid], 8320 pM. To `CC1(C)CCC(N(CC(=O)c2c(Cl)cc(Cl)cc2Cl)C(=O)c2cnn([C@H]3CC[C@](C)(C(=O)O)CC3)c2C(F)(F)F)CC1` [Example 191, trans-4-(4-((4,4-dimethylcyclohexyl)-(2-oxo-2-(2,4,6-trichlorophenyl)ethyl)carbamoyl)-5-(trifluoromethyl)pyrazol-1-yl)-1-methylcyclohexane-1-carboxylic acid] belongs 8910 pM.

Turning to `CC12CCC(CN(CC(=O)c3c(Cl)cncc3Cl)C(=O)c3cnn([C@H]4CC[C@H](C(=O)O)CC4)c3C(F)(F)F)(CC1)C2` [Example 192, trans-4-(4-((2-(3,5-dichloropyridin-4-yl)-2-oxoethyl)-((1-methyl-4-bicyclo[2.2.1]heptanyl)methyl)carbamoyl)-5-(trifluoromethyl)pyrazol-1-yl)cyclohexane-1-carboxylic acid], the IC50 is 11700 pM. In the case of `CC12CCC(CN(CC(=O)c3c(Cl)cc(F)cc3Cl)C(=O)c3cnn([C@H]4CC[C@H](C(=O)O)CC4)c3C(F)(F)F)(CC1)C2` [Example 193, trans-4-(4-((2-(2,6-dichloro-4-fluorophenyl)-2-oxoethyl)-((1-methyl-4-bicycio[2.2.1]heptanyl)methyl)carbamoyl)-5-(trifluoromethyl)pyrazol-1-yl)cyclohexane-1-carboxylic acid], the IC50 was 6460 pM. On to `O=C(CN(CC1(F)CCCC1)C(=O)c1cnn([C@H]2CC[C@H](C(=O)O)CC2)c1C(F)(F)F)c1c(Cl)cncc1Cl` [Example 194, trans-4-(4-((2-(3,5-dichloropyridin-4-yl)-2-oxoethyl)-((1-fluorocyclopentyl)methyl)carbamoyl)-5-(trifluoromethyl)pyrazol-1-yl)cyclohexane-1-carboxylic acid], for which the IC50 is 14100 pM. Take `O=C(CN(Cc1ccc(F)cc1)C(=O)c1cnn([C@H]2CC[C@H](C(=O)O)CC2)c1C(F)(F)F)c1c(Cl)cc[nH]c1=O` [Example 195, trans-4-(4-((2-(4-chloro-2-oxo-1H-pyridin-3-yl)-2-oxoethyl)-((4-fluorophenyl)methyl)carbamoyl)-5-(trifluoromethyl)pyrazol-1-yl)cyclohexane-1-carboxylic acid]: the IC50 was greater than 1e+07 pM. In the case of `CC1(C)CCC(N(CC(=O)c2c(Cl)cncc2Cl)C(=O)c2cnn([C@H]3CC[C@](C)(C(=O)O)CC3)c2C(F)F)CC1` [Example 196, trans-4-(4-((2-(3,5-dichloropyridin-4-yl)-2-oxoethyl)-(4,4-dimethylcyclohexyl)carbamoyl)-5-(difluoromethyl)pyrazol-1-yl)-1-methylcyclohexane-1-carboxylic acid] it was 3.47e+06 pM; in that of `C[C@]1(C(=O)O)CC[C@H](n2ncc(C(=O)N(CC(=O)c3c(Cl)cc(F)cc3Cl)Cc3cc(F)cc(F)c3)c2C(F)F)CC1` [Example 197, trans-4-(4-((2-(2,6-dichloro-4-fluorophenyl)-2-oxoethyl)-((3,5-difluorophenyl)methyl)carbamoyl)-5-(difluoromethyl)pyrazol-1-yl)-1-methylcyclohexane-1-carboxylic acid], 513000 pM; in that of `O=C(CN(C(=O)c1cnn([C@H]2CC[C@H](C(=O)O)CC2)c1C(F)(F)F)C1CCOC1)c1c(Cl)cncc1Cl` (stereo partly drawn) [Example 198, trans-4-(4-((2-(3,5-dichloropyridin-4-yl)-2-oxoethyl)-(oxolan3-yl)carbamoyl)-5-(trifluoromethyl)pyrazol-1-yl)cyclohexane-1-carboxylic acid], greater than 1e+07 pM. To `CC1(C)[C@@H]2C[C@H](N(CC(=O)c3c(Cl)cc(F)cc3Cl)C(=O)c3cnn([C@H]4CC[C@](C)(C(=O)O)CC4)c3C(F)(F)F)C[C@@H]21` [Example 199, trans-4-(4-((2-(2,6-dichloro-4-fluorophenyl)-2-oxoethyl)-((1R,3r,5S)-6,6-dimethyl-3-bicyclo[3.1.0]hexanyl)carbamoyl)-5-(trifluoromethyl)pyrazol-1-yl)-1-methylcyclohexane-1-carboxylic acid] belongs 5010 pM; to `O=C(CN(CC1CC2(CC2)C1)C(=O)c1cnn([C@H]2CC[C@H](C(=O)O)CC2)c1C(F)(F)F)c1c(Cl)cncc1Cl` [Example 200, trans-4-(4-((2-(3,5-dichloropyridin-4-yl)-2-oxoethyl)-(spiro[2.3]hexan-5-ylmethyl)carbamoyl)-5-(trifluoromethyl)pyrazol-1-yl)cyclohexane-1-carboxylic acid], 15800 pM.
